From patent US11427548B2 (Arvinas Operations, Inc., priority 2015, dated 2022)
Like-named read-outs stand apart in the source and are kept apart here.

Biological target: T1, Androgen Receptor (Homo sapiens, UniProt P10275)
T1 construct: endogenous in cells; host or cells: VCaP cells
T1 sequence (P10275 1-920): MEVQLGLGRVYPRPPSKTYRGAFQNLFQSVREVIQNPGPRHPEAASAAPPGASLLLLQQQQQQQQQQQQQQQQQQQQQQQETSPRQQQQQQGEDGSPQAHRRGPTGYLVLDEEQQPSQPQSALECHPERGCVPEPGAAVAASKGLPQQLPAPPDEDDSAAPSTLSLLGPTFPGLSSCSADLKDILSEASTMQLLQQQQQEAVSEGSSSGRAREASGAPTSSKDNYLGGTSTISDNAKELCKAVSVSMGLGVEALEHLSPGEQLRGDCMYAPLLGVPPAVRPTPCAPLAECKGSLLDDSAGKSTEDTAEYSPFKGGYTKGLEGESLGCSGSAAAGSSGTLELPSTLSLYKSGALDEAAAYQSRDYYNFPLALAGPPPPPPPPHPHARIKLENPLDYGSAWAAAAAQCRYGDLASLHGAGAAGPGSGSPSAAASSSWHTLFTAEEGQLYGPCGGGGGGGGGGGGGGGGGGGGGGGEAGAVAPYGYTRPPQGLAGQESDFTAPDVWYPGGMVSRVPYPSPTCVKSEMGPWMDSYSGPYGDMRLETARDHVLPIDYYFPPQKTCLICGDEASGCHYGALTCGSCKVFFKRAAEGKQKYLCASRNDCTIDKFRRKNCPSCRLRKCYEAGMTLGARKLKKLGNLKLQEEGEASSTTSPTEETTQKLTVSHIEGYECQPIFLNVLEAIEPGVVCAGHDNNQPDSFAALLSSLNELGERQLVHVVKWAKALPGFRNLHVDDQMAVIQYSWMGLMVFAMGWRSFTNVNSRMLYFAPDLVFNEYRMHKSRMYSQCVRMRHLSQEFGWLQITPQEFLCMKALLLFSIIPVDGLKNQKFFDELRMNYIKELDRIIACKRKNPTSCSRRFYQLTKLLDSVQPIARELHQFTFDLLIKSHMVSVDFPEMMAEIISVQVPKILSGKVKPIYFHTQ
Experiment: Androgen Receptor ELISA assay (PathScan AR ELISA) in VCaP cells: AR degradation, Dmax and DC50
Format: cell-based
In short: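 VCaP cells, 30,000/well, grown ≥3 days in phenol red-free RPMI with 5% charcoal-stripped FBS; compound added in 0.1% DMSO with 0.1 nM R1881, 7 half-log doses, 24 h. Lysate AR quantified by PathScan sandwich ELISA, HRP/TMB read at 450 nm, giving DC50 and Dmax.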

[1] = VCaP cells; concentration that caused 50% Androgen Receptor degradation; read-out: VCaP DC50
[2] = VCaP, VCaP cells; highest percentage of Androgen Receptor degradation; read-out: VCaP Dmax (%)
[3] = read-out: VCaP DC50; VCaP cells; concentration that caused 50% Androgen Receptor degradation
[4] = read-out: VCaP DC50; VCaP cells; Table 34
[5] = VCaP cells; Table 34; read-out: VCaP DC50
[6] = VCaP, VCaP cells; Table 34; read-out: VCaP Dmax (%)

Row | SMILES | Dmax (VCaP, read-out: VCaP Dmax (%)) [%] | DC50 [4] [nM] | further results
1 | Cc1ncsc1-c1ccc([C@H](C)NC(=O)[C@@H]2C[C@@H](O)CN2C(=O)[C@@H](NC(=O)COCCCCOc2ccc(-c3ccc(N4C(=S)N(c5cnc(C#N)c(C(F)(F)F)c5)C(=O)C4(C)C)c(F)c3)cc2)C(C)(C)C)cc1 [Example 196, (2S,4R)-1-[(2S)-2-(2-{4-[4-(4-{3-[6-cyano-5-(trifluoromethyl)pyridin-3-yl]-5,5-dimethyl-4-oxo-2-sulfanylideneimidazolidin-1-yl}-3-fluorophenyl)phenoxy]butoxy}acetamido)-3,3-dimethylbutanoyl]-4-hydroxy-N-[(1S)-1-[4-(4-methyl-1,3-thiazol-5-yl)phenyl]ethyl]pyrrolidine-2-carboxamide] | – | – | DC50 [1]: < 50 nM; Dmax [2]: > 71%
2 | Cc1ncoc1-c1ccc(CNC(=O)[C@@H]2C[C@@H](O)CN2C(=O)[C@@H](NC(=O)COCCCCOc2ccc(-c3ccc(N4C(=S)N(c5cnc(C#N)c(C(F)(F)F)c5)C(=O)C45CCC5)cc3)cc2)C(C)(C)C)cc1 [Example 198, (2S,4R)-1-[(2S)-2-(2-{4-[4-(4-{7-[6-cyano-5-(trifluoromethyl)pyridin-3-yl]-8-oxo-6-sulfanylidene-5,7-diazaspiro[3.4]octan-5-yl}phenyl)phenoxy]butoxy}acetamido)-3,3-dimethylbutanoyl]-4-hydroxy-N-{[4-(4-methyl-1,3-oxazol-5-yl)phenyl]methyl}pyrrolidine-2-carboxamide] | – | – | DC50 [1]: < 50 nM; Dmax [2]: 51 to 70%
3 | Cc1ncsc1-c1ccc(CNC(=O)[C@@H]2C[C@@H](O)CN2C(=O)[C@@H](NC(=O)COCCCCOc2ccc(-c3ccc(N4C(=S)N(c5cnc(C#N)c(C(F)(F)F)c5)C(=O)C45CCC5)cc3)cc2)C(C)(C)C)cc1 [Example 199, (2S,4R)-1-[(2S)-2-(2-{4-[4-(4-{7-[6-cyano-5-(trifluoromethyl)pyridin-3-yl]-8-oxo-6-sulfanylidene-5,7-diazaspiro[3.4]octan-5-yl}phenyl)phenoxy]butoxy}acetamido)-3,3-dimethylbutanoyl]-4-hydroxy-N-{[4-(4-methyl-1,3-thiazol-5-yl)phenyl]methyl}pyrrolidine-2-carboxamide] | – | – | DC50 [1]: < 50 nM; Dmax [2]: 51 to 70%
4 | CC(C)(C)[C@H](NC(=O)COCC1CC2(C1)CC(COc1ccc(N3C(=S)N(c4ccc(C#N)c(Cl)c4)C(=O)C3(C)C)cc1)C2)C(=O)N1C[C@H](O)C[C@H]1C(=O)NCc1ccc(-c2cnco2)cc1 (stereo partly drawn) [Example 200] | > 71 | – | DC50 [3]: < 50 nM
5 | Cc1ncsc1-c1ccc(CNC(=O)[C@@H]2C[C@@H](O)CN2C(=O)[C@@H](NC(=O)COCC2CC3(C2)CC(COc2ccc(N4C(=S)N(c5ccc(C#N)c(C(F)(F)F)c5)C(=O)C45CCC5)cc2)C3)C(C)(C)C)cc1 (stereo partly drawn) [Example 203, (2S,4R)-1-[(2S)-2-[2-({6-[(4-{7-[4-cyano-3-(trifluoromethyl)phenyl]-8-oxo-6-sulfanylidene-5,7-diazaspiro[3.4]octan-5-yl}phenoxy)methyl]spiro[3.3]heptan-2-yl}methoxy)acetamido]-3,3-dimethylbutanoyl]-4-hydroxy-N-{[4-(4-methyl-1,3-thiazol-5-yl)phenyl]methyl} pyrrolidine-2-carboxamide] | > 71 | – | DC50 [3]: < 50 nM
6 | Cc1ncsc1-c1ccc(CNC(=O)[C@@H]2C[C@@H](O)CN2C(=O)[C@@H](NC(=O)CCOCCN2CCC(COc3ccc(N4C(=S)N(c5ccc(C#N)c(C(F)(F)F)c5)C(=O)C4(C)C)cc3)CC2)C(C)(C)C)cc1 [Example 313] | – | < 50 | –
7 | Cc1ncsc1-c1ccc(CNC(=O)[C@@H]2C[C@@H](O)CN2C(=O)[C@H](C(C)C)N2CC(OCCOCCOc3ccc(N4C(=S)N(c5ccc(C#N)c(C(F)(F)F)c5)C(=O)C4(C)C)cc3)=CC2=O)cc1 [Example 314] | < 25 | 51 to 500 | –
8 | Cc1ncsc1-c1ccc(CNC(=O)[C@@H]2C[C@@H](O)CN2C(=O)[C@@H](NC(=O)CCCOCCCOCCOc2ccc(N3C(=S)N(c4ccc(C#N)c(C(F)(F)F)c4)C(=O)C3(C)C)cc2)C(C)(C)C)cc1 [Example 315] | 26 to 50 | 51 to 500 | –
9 | Cc1ncsc1-c1ccc(CNC(=O)[C@@H]2C[C@@H](O)CN2C(=O)[C@@H](NC(=O)CNCCCCOCCCOc2ccc(N3C(=S)N(c4ccc(C#N)c(C(F)(F)F)c4)C(=O)C3(C)C)cc2)C(C)(C)C)cc1 [Example 316] | 26 to 50 | 51 to 500 | –
10 | Cc1ncsc1-c1ccc(CNC(=O)[C@@H]2C[C@@H](O)CN2C(=O)[C@@H](NC(=O)CN(C)CCCCOCCCOc2ccc(N3C(=S)N(c4ccc(C#N)c(C(F)(F)F)c4)C(=O)C3(C)C)cc2)C(C)(C)C)cc1 [Example 317] | 26 to 50 | 51 to 500 | –
11 | Cc1ncsc1-c1ccc(CNC(=O)[C@@H]2C[C@@H](O)CN2C(=O)[C@@H](NC(=O)COCCC2CCN(CCOc3ccc(N4C(=S)N(c5ccc(C#N)c(C(F)(F)F)c5)C(=O)C4(C)C)cc3)CC2)C(C)(C)C)cc1 [Example 318] | 26 to 50 | 51 to 500 | –
12 | Cc1ncsc1-c1ccc(CNC(=O)[C@@H]2C[C@@H](O)CN2C(=O)[C@@H](NC(=O)COCC#CCOCCOc2ccc(N3C(=S)N(c4ccc(C#N)c(C(F)(F)F)c4)C(=O)C3(C)C)cc2)C(C)(C)C)cc1 [Example 319] | 26 to 50 | < 50 | –
13 | Cc1ncsc1-c1ccc(CNC(=O)[C@@H]2C[C@@H](O)CN2C(=O)[C@@H](NC(=O)COCCCCOCCCCOc2cccc(N3C(=S)N(c4ccc(C#N)c(C(F)(F)F)c4)C(=O)C3(C)C)c2)C(C)(C)C)cc1 [Example 320] | 26 to 50 | < 50 | –
14 | Cc1ncsc1-c1ccc(CNC(=O)[C@@H]2C[C@@H](O)CN2C(=O)[C@@H](NC(=O)COCCCOCCCCOc2cccc(N3C(=S)N(c4ccc(C#N)c(C(F)(F)F)c4)C(=O)C3(C)C)c2)C(C)(C)C)cc1 [Example 321] | 26 to 50 | < 50 | –
15 | COc1cc(N2C(=O)C(C)(C)N(c3ccc(OCCOc4ccc(OCC(=O)N[C@H](C(=O)N5C[C@H](O)C[C@H]5C(=O)NCc5ccc(-c6scnc6C)cc5)C(C)(C)C)cc4)c(F)c3)C2=S)ccc1C#N [Example 323] | – | – | DC50 [5]: < 50 nM; Dmax [6]: 51 to 70%
16 | Cc1ncsc1-c1ccc(CNC(=O)[C@@H]2C[C@@H](O)CN2C(=O)[C@@H](NC(=O)CCN2CCC(OCCOc3ccc(N4C(=S)N(c5ccc(C#N)c(C(F)(F)F)c5)C(=O)C4(C)C)cc3)CC2)C(C)(C)C)cc1 [Example 324] | 26 to 50 | 51 to 500 | –
17 | Cc1ncsc1-c1ccc(CNC(=O)[C@@H]2C[C@@H](O)CN2C(=O)[C@@H](NC(=O)COC/C=C\COCCCCOc2ccc(N3C(=S)N(c4ccc(C#N)c(C(F)(F)F)c4)C(=O)C3(C)C)cc2)C(C)(C)C)cc1 [Example 325] | 26 to 50 | < 50 | –
18 | Cc1ncsc1-c1ccc(CNC(=O)[C@@H]2C[C@@H](O)CN2C(=O)[C@H](C(C)C)N2CC(OCCCOCCCOc3ccc(N4C(=S)N(c5ccc(C#N)c(C(F)(F)F)c5)C(=O)C4(C)C)cc3)=CC2=O)cc1 [Example 329] | 26 to 50 | < 50 | –
19 | Cc1ncsc1-c1ccc(CNC(=O)[C@@H]2C[C@@H](O)CN2C(=O)[C@@H](NC(=O)COCCCOCCCCNc2ccc(N3C(=S)N(c4ccc(C#N)c(C(F)(F)F)c4)C(=O)C3(C)C)cc2)C(C)(C)C)cc1 [Example 333] | 51 to 70 | < 50 | –
20 | CC(C)(C)[C@H](NC(=O)COCCCOCCCCOc1ccc(N2C(=S)N(c3ccc(C#N)c(Br)c3)C(=O)C2(C)C)cc1F)C(=O)N1C[C@H](O)C[C@H]1C(=O)NCc1ccc(-c2cnco2)cc1 [Example 334] | – | – | DC50 [5]: < 50 nM; Dmax [6]: > 71%
